Experimental data as given in ChEMBL document CHEMBL1149960, “Synthesis, insecticidal and anti-acetylcholinesterase activity of a new class of heterocyclic methanesulfonates” (Bioorg Med Chem Lett, 1996).
Converted amounts (≈) assume the structure as drawn.

Experiments:
Acetylcholinesterase = biological target: T1, Acetylcholinesterase (Bos taurus, UniProt P23795)
T1 sequence (P23795 whole entry): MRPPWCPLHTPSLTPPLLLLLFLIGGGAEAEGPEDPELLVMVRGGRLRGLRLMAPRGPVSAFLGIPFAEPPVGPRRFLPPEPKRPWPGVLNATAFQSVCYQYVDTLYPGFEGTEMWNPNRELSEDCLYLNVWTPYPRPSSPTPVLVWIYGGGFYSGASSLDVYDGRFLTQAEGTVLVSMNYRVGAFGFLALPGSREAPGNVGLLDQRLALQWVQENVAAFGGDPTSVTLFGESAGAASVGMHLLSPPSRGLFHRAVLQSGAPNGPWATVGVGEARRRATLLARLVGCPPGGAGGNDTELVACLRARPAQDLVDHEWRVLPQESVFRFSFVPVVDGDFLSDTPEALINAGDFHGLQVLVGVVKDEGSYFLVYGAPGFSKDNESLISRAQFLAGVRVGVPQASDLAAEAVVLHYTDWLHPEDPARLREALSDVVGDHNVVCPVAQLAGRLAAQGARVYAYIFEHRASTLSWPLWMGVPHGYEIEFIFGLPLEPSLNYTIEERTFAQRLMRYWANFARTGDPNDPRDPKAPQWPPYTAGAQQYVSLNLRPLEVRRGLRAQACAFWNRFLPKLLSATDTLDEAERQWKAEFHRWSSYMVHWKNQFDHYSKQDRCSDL
Description: Inhibition of bovine erythrocyte acetylcholinesterase (AChE)

Lucilia cuprina = assay: whole plant or invertebrate
Description: Insecticidal activity against blowfly Lucilia cuprina

[1] = system: Diabrotica undecimpunctata; assay: whole plant or invertebrate; conditions: in Zea mays, read-out: LD50
Description: Insecticidal activity against southern Corn rootworm (SCRW)

Row | Compound | IC50 (Acetylcholinesterase) [µM] | LD50 (Lucilia cuprina) [mg/kg] | LC50 [1] [µg/mL]
1 | CC1(C)CC(OS(C)(=O)=O)=NN1C(=O)Nc1ccccc1 | > 1000 | > 100 | > 1000
2 | CC(C)NC(=O)N1N=C(OS(C)(=O)=O)CC1C (stereo unspecified) | 28.6 | 21 | < 0.5
3 | CC(C)NS(=O)(=O)N1N=C(OS(C)(=O)=O)CC1c1ccccc1 (stereo unspecified) | > 1000 | > 100 | > 1000
4 | CC1(C)CC(OS(C)(=O)=O)=NN1C(=O)NC1CCCCC1 | 284 | 2.64 | > 1000
5 | CC(C)NS(=O)(=O)N1N=C(OS(C)(=O)=O)CC1(C)C | 1270 | 37 | 60 (≈ 191 µM)
6 | CC1(C)CC(OS(C)(=O)=O)=NN1S(C)(=O)=O | > 1000 | > 1000 | > 1000
7 | CC(C)C(=O)N1N=C(OS(C)(=O)=O)CC1(C)C | > 1000 | > 100 | 120 (≈ 457 µM)
8 | CCCS(=O)(=O)N1N=C(OS(C)(=O)=O)CC1c1ccccc1 (stereo unspecified) | 62.5 | > 100 | > 1000
9 | CC(C)(C)NC(=O)N1N=C(OS(C)(=O)=O)CC1(C)C | > 1000 | 75.9 | 12 (≈ 41.2 µM)
10 | CCOC(=O)N1N=C(OS(C)(=O)=O)CC1(C)C | > 1000 | > 100 | > 1000
11 | CC1(C)CC(OS(C)(=O)=O)=NN1C(N)=O | > 1000 | > 1000 | > 1000
12 | CN(C)S(=O)(=O)N1N=C(OS(C)(=O)=O)CC1c1ccccc1 (stereo unspecified) | > 1000 | > 100 | > 1000
13 | CC(C)NC(=O)N1N=C(OS(C)(=O)=O)CC1C(C)C (stereo unspecified) | 602 | 25.1 | 5 (≈ 17.2 µM)
14 | CC(C)CS(=O)(=O)c1cccc(OS(C)(=O)=O)n1 | 60.5 | > 100 | < 0.5
15 | CC(C)NC(=O)N1N=C(OS(C)(=O)=O)CC1c1ccccc1 (stereo unspecified) | 40.6 | 34.4 | < 0.5
16 | CCCNS(=O)(=O)N1N=C(OS(C)(=O)=O)CC1(C)C | > 1000 | 40.9 | 55 (≈ 175 µM)
17 | C=CCNC(=O)N1N=C(OS(C)(=O)=O)CC1(C)C | 149 | 6.84 | 1.6 (≈ 5.81 µM)
18 | CC(C)NC(=O)N1N=C(OS(C)(=O)=O)CC1(C)C | 714 | 7.14 | 1 (≈ 3.61 µM)
19 | COP(=O)(OC)C(O)C(Cl)(Cl)Cl (stereo unspecified) [TRICHLORFON] | > 1000 | 21.8 | –
